From article PMC5650372 (Oncotarget, 2017)

Columns and labels:
[1] = biological target: T1, DNA-PKcs, XRCC4 and DNA ligase IV on DNA (Homo sapiens, UniProt P78527); assay: DNA end binding assay (MCF7 nuclear extract); type: biochemical; details: 5 μM, MCF7 nuclear extract, 10, 30, 60 minutes
T1 construct: endogenous in cells; host or cells: MCF7 nuclear extract
From the text: One kb of DNA fragment, including an EcoRI sequence in the middle, was amplified by PCR using pEGFP as a template and a pair of biotinylated EGFP primers (5′-biotin-[…]-3′ and 5′-biotin-[…]-3′: Valuegene, San Diego, CA). The amplified DNA fragment was cleaved by EcoRI to produce two 0.5 kb biotinylated DNA fragments, and was purified using the QIAquick PCR purification kit (Qiagen). […] An aliquot of the reaction was removed at each time point to separate the supernatant and the beads. The supernatant was subjected to SDS-PAGE and immunoblotting with indicated antibodies. The beads were washed twice with 250 μL of IP buffer (25 mM Hepes-KOH, pH 7.5, 100 mM NaCl, 20% glycerol, 5 mM EDTA, 1 mM DTT, 0.05% Nonidet P-40, 10 mM NaF, and protease inhibitor mixture) and subjected to SDS-PAGE and immunoblotting with indicated antibodies.

[2] = system: pDNA-PK S2056 in HT29 and MDA-MB-436 cells; assay: Immunoblotting of intact cells with bleomycin; type: cell-based, human; details: 5 μM with 1.5 mU/mL bleomycin, 2 or 12 hours
Procedure: (§1) The cell lysates were subjected to SDS-PAGE and immunoblotting with indicated antibodies. […] The pDNA-PK bands were quantified by Odyssey imaging software (LI-COR, Lincoln, NE) and normalized to total DNA-PK. IC50 values were determined by Excelfit (London, UK).

[3] = system: ATM-proficient cell lines (MDA-MB-231, MCF7, CAL51, HCC1937); assay: Colony-formation assay; type: cell-based, human; details: versus ATM-deficient HCC1187
Procedure: MCF7, Cal51, MDA-MB-231, H1937, MDA-MB-175VII and HCC1187 human breast cancer cell lines were plated at 2000 cells per well in 6-well plates and HCC1500 breast cancer cell line was plated at 10,000 cells per well in 6-well plates and cultured overnight. Cells were then treated with compounds at indicated concentrations. Media and compounds were changed every three days. Plates were incubated for a total of about two weeks then fixed and stained using the DIFF QUIK staining kit (Microptic, Barcelona, Spain). Colonies were imaged and counted.

NHEJ in Cal-51 cells = assay: Cellular NHEJ assay with GFP reporter gene; type: cell-based, human; details: 1 μM
Procedure: (§2) deficient cell growth in vitro […]
(§3) incorporated in the corresponding no inhibitor control mTOR, DNA-PK and PI3K-alpha assays were to determine percent inhibition. An IC50 value was then performed as reported previously. estimated.
(§4) ATM and ATR assay and IC50 determination Cellular NHEJ assay
(§5) HA-ATM and FLAG-ATR (HA-labeled ATM, and The experimental design is illustrated in FLAG-labeled ATR) were each transiently expressed in Supplementary Figure 4. Cal-51 breast cancer cells HEK293 cells (293FT cells, Invitrogen Cat: R700-07) were separately transfected with pEGFP plasmid (6085-using Lipofectamine as transfection reagent. Cells were 1, Clontech, Mountain View, CA) digested with either harvested 6 days post transfection and spun down to EcoRI (to measure NHEJ) or StuI (to measure transfection separate cells from media. Cells were then lysed using a efficiency) using a Amaxa cell line nuclearfector kit V lysis buffer (50 mM Tris buffer, (Tris(hydroxylmethyl)- (CCA-1003, Lonza). Immediately after the transfection, aminomethane, pH 7.5), 100 mM NaCl, 50 mM βGOP, the cells were treated with DMSO or compounds at 10% Glycerol, 0.5% Tween 20, 1 mM EDTA, 25 mM indicated concentrations for 24 hours and GFP-positive sodium fluoride (NaF), 20 nM microcystine, 2 mM cells were counted under a fluorescent microscope. […]

[4] = system: pDNA-PK S2056 in NCI-H441 cells; assay: Western blot quantitation of pDNA-PK S2056; type: cell-based, human
Procedure: as §1

[5] = system: pATM S1981 and pNbs1 S343 in HT29 and MDA-MB-436 cells; assay: Immunoblotting of intact cells with bleomycin; type: cell-based, human; details: 5 μM with 1.5 mU/mL bleomycin, 2 or 12 hours
[6] = system: pS6 S235/236 in NCI-H441 cells; assay: Western blot quantitation of pS6 S235/236 (mTORC1 biomarker); type: cell-based; details: Homo sapiens; NCI-H441, presence of bleomycin, 2 hrs, n=3; read-out: IC50 of pS6 S235/236 inhibition
[7] = system: NHEJ in intact cells of different cell lines; assay: Cellular NHEJ assay, summary over cell lines; type: cell-based; details: Homo sapiens; range over different cell lines (Table 1); read-out: potency against NHEJ in intact cells
Procedure: as §2, §3, §4, §5

[8] = system: NCI-H1975 and SW1573 cells; assay: Clonogenic assay alone or with etoposide; type: cell-based, human
Procedure: Media were changed every three days. Plates were incubated for a total of about two weeks then fixed and stained using the DIFF QUIK staining kit. Colonies were imaged and counted.

[9] = system: hematological and solid tumor cell lines; assay: Caspase 3/7-Glo apoptosis assay; type: cell-based, human; details: 24 h, subset of hematological and solid tumor cell lines
Procedure: (§6) Proliferation assays were performed as previously described. […] The concentration of compound required for a 2-fold induction of Caspase was determined (CalX).

[10] = system: panel of 123 cancer cell lines; assay: Proliferation assay, whole panel; type: cell-based; details: Homo sapiens; range over 123 cell lines; read-out: GI50 values across the cancer cell line panel
Procedure: as §6

In the case of `CCN1C(=O)CNc2ncc(-c3ccc(-c4nc[nH]n4)nc3C)nc21` [CC-115, 1-ethyl-7-(2-methyl-6-(1H-1,2,4-triazol-3-yl)pyridin-3yl)-3,4-dihydropyrazino[2,3-b]pyrazin-2(1H)-one], the “DNA-PKcs, XRCC4 and DNA ligase IV bound to DNA over time” value [1] is reported as “retained from 10 minutes through the end of the reaction at 60 minutes”, the “DNA-PK activity (pDNA-PK S2056)” value [2] is reported as “significantly inhibited” and the “ATM-proficient cell lines less sensitive to inhibition of colony formation” value [3] is reported as 100 fold. For the same compound, the “GFP-positive cells (pEGFP-EcoRI)” value (NHEJ in Cal-51 cells) was 1.25%, the “GFP-positive cells (pEGFP-StuI)” value (NHEJ in Cal-51 cells; DMSO 25.71%) was 10.47% and the IC50 ([4]; Homo sapiens, NCI-H441, presence of bleomycin, 2 hrs, n=3, read-out: IC50 of pDNA-PK S2056 inhibition) was 2600 ± 450 nM. The “cellular activity against DNA-PK weaker than against mTOR kinase” value ([4]; NCI-H441) was ~16 fold, the “ATM activity (pATM S1981 and pNbs1 S343)” value [5] was “significantly inhibited” and the IC50 [6] was 160 ± 10 nM. The IC50 [7] was 1000 to 7000 nM, the “combination with 6.8 μM etoposide on colony formation greater than additive” value ([8]; 0.1 μM compound, 4 hours) was “not” and the “combination with 6.8 μM etoposide on colony formation” value ([8]; 10 μM compound, 4 hours) was “synergistic effect”. The “effect on cell survival, single agent” value ([8]; 4 hours treatment alone) was “minimal effect on cell survival”, the “apoptosis induction (Caspase 3/7)” value [9] was “induced strong apoptosis” and the GI50 [10] was 15 to 1770 nM.
